Reference: US20220151979A1, “COMPOSITION FOR PREVENTION OR TREATMENT OF CARDIOVASCULAR AND METABOLIC DISEASE COMPRISING NORANHYDROICARITIN” (SEOUL NATIONAL UNIVERSITY HOSPITAL, priority 2019, published 2022)

Assays:
Format in all cases: cell-based, human
PPARγ = PPARγ expression in HepG2 cells (RealTime-PCR, immunohistochemistry)
Method: (§1) In order to confirm the effect of increasing the expression of PPARα and PPARγ of noranhydroicaritin, PCR using PPARα primers and immunohistochemistry targeting PPARα and PPARγ were performed to confirm the expression levels.
(§2) Using cDNA synthesized with RNA according to the method of Example 4, the quantities of PPARα mRNA and PPARγ mRNA were confirmed through RealTime-PCR analysis. The group treated only with DMSO was used as a negative control. For immunohistochemistry, HepG2 cells were attached to a slide chamber, then treated with noranhydroicaritin at 20 μM, and incubated. After fixation with formalin, the HepG2 cells were stained with antibodies targeting PPARα and PPARγ, and treated with DAPI to stain nuclei, and the degree of fluorescent expression was confirmed using a confocal microscope.

SREBP 2 promoter = assay: SREBP 2 promoter-reporter luciferase assay in HEK293T cells; details: pGL4.14-SREBP-transfected HEK293T cells, 18 hours, compared to control
Method: (§3) In order to confirm the SREBP gene expression inhibitory effect of noranhydroicaritin, HEK293T cells were treated with noranhydroicaritin and kaempferol, and it was confirmed whether the expression of SREBP was inhibited through a luciferase assay.
(§4) i) A primer was prepared to contain KpnI and XhoI restriction enzyme sites in the SREBP 1 and 2 promoter gene region, and then PCR (polymerase chain reaction) and electrophoresis on an agarose gel were performed to isolate SREBP promoter region DNA. A pGL4.14-[luc2/Hygro] vector containing a firefly luciferase as a reporter gene was treated with the same restriction enzymes (KpnI and XhoI), and then isolated via agarose gel electrophoresis and gel extraction. The purely isolated SREBP promoter gene region and pGL4.14-[luc2/Hygro] vector were reacted for 1 hour using In-fusion DNA ligase (Takara), and then transformed into E. coli to prepare a promoter-reporter construct in which the SREBP promoter was inserted, and this was named pGL4.14-SREBP.
(§5) ii) In order to measure the transcriptional activity of the SREBP promoter gene, HEK293T cells were transfected with pGL4.14-SREBP, and then the luciferase activity of the cell extract was measured. […] Thereafter, the luciferase activity was measured by the method of Example 6. […]

PCSK9 promoter = assay: PCSK9 promoter-reporter luciferase assay in HEK293T cells; details: pGL4.14-PCSK9-transfected HEK293T cells, 2.5-20 μM, 18 hours
Method: In order to confirm the PCSK9 gene expression inhibitory effect of noranhydroicaritin, HEK293T cells were treated with noranhydroicaritin at various concentrations, and it was confirmed whether the expression of PCSK9 was inhibited through a luciferase assay.
i) A primer was prepared to contain KpnI and XhoI restriction enzyme sites in the PCSK9 promoter gene region, and then PCR (polymerase chain reaction) and electrophoresis on an agarose gel were performed to isolate PCSK9 promoter region DNA. A pGL4.14-[luc2/Hygro] vector containing a firefly luciferase as a reporter gene was treated with the same restriction enzymes (KpnI and XhoI), and then isolated via agarose gel electrophoresis and gel extraction. […]
ii) In order to measure the transcriptional activity of the PCSK9 promoter gene, HEK293T cells were transfected with pGL4.14-PCSK9, and then the luciferase activity of the cell extract was measured. […]
iii) After 18 hours of incubation, cells were washed with PBS one time, an appropriate amount of luciferase reagent was added to each well, then the plate was shaken for 15 min, the supernatant was obtained, and the transcriptional activity was measured. Passive lysis buffer was used, and the luciferase activity was measured using a microplate luminometer (Tecan). […]

SREBP 1 promoter = assay: SREBP 1 promoter-reporter luciferase assay in HEK293T cells; details: pGL4.14-SREBP-transfected HEK293T cells, 18 hours, compared to control
Method: as §3, §4, §5

HEK293T cells = assay: MTT cell viability of HEK293T cells; details: 20 μM, 24 hours, relative to DMSO negative control
Method: In order to confirm the toxicity of noranhydroicaritin to cells, HEK293T (human embryonic kidneys) were treated with noranhydroicaritin at various concentrations, and the cell viability at each concentration of noranhydroicaritin was calculated through the MTT screening method.
Specifically, HEK293T cells were suspended in DMEM (Welgene Inc.) medium containing 10% fetal bovine serum at a concentration of 1×10^5 cells/mL, and 100 μL thereof was inoculated into each well of a 96-well plate. After 4 hours, the HEK293T cells in the well plate were treated with noranhydroicaritin samples at concentrations of 2.5 μM, 5 μM, 10 μM, and 20 μM. After incubation for 24 hours, 5 μL of MTT (5 mg/mL) was added to the well plate, and the cells were further incubated for 4 hours. Thereafter, the medium was removed, 100 μL of DMSO was added to the well plate, the reaction was conducted, and then the absorbance was measured at 570 nm. As a control, cholesterol synthesis inhibitors atorvastatin (Ato) and rosuvastatin (Ros) were used. The cell viability was calculated according to the mathematical formula as a value relative to 100% of the value for the negative control treated only with DMSO. The results are illustrated in FIG. 2.

PPARα = PPARα expression in HepG2 cells (RealTime-PCR, immunohistochemistry)
Method: as §1, §2

SMILES: CC(C)=CCc1c(O)cc(O)c2c(=O)c(O)c(-c3ccc(O)cc3)oc12 [Noranhydroicaritin, noranhydroicaritin]
- expression of PPARγ (PPARγ): increased in a concentration-dependent manner
- SREBP 2 luciferase activity (SREBP 2 promoter): significantly decreased
- PCSK9 luciferase activity (PCSK9 promoter): decreased in a noranhydroicaritin concentration-dependent manner
- SREBP 1 luciferase activity (SREBP 1 promoter): significantly decreased
- cell viability (HEK293T cells): ≥ 90%
- expression of PPARα (PPARα): increased in a concentration-dependent manner
